Publication PMC5233962 (Scientific Reports, 2017)
Values joined by “and” are separate entries in the source; they are usually repeats but may differ in a detail not shown here. Equal values may be shown once. Read-outs that look alike come from different tables or passages of the source.

Legend:
[1] = molecular target: rH3R; conditions: rat H3R; cited from earlier work
[2] = molecular target: r5-HT2A; design: method as in PMID 9808693; conditions: rat tail; cited from earlier work
[3] = molecular target: gp5-HT3; design: method as in PMID 9808693; conditions: guinea pig ileum; cited from earlier work
[4] = molecular target: T1, rat brain MAO B (Rattus norvegicus, UniProt P19643); assay: Radiometric IC50 determination, rat brain MAO B; format: biochemical
T1 construct: the crude homogenates prepared from pooled brain from three rats were used; from tissue; host or cells: Wistar rat brain, crude homogenate
T1 sequence (P19643 whole entry): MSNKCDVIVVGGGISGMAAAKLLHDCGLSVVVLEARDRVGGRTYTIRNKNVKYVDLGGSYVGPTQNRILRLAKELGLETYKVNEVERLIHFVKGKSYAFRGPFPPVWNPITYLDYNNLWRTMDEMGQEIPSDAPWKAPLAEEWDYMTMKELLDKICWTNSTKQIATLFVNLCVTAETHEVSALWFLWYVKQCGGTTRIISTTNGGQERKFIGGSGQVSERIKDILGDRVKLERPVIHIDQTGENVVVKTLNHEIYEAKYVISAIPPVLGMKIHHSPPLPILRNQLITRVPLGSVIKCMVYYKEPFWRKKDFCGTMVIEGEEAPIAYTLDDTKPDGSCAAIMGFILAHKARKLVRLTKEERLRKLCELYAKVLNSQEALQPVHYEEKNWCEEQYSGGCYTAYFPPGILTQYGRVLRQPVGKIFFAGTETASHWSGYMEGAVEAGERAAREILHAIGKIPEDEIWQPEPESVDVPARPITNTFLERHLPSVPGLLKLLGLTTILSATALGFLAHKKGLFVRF
Protocol: (§1) The IC50 values of ciproxifan for rat brain MAO (rMAO) were obtained radiometrically using serotonin (5-HT) and phenylethylamine (PEA) as MAO A and MAO B substrates, respectively.
(§2) Wistar male rats were sacrificed, the brains were quickly excised from the skulls, cleaned of residual meninges and frozen on dry ice. For each experiment the crude homogenates prepared from pooled brain from three rats were used. Enzyme activity of MAO A or MAO B was measured using radioactive substrate (PerkinElmer/NEN): serotonin (5-[2-^14C]-hydroxytryptamine binoxalate) or β-[ethyl-1-^14C]-phenyl-ethyl-amine hydrochloride (PEA), respectively, with the procedure described by Fowler and Tipton 1981[25] with some modification according to Gómez et al.[26]. […] IC50 values were determined in three independent experiments, each performed in duplicates.

[5] = test system: hMAO; assay: Type of inhibition from dilution experiments, both hMAO isoforms; format: biochemical, human; conditions: dilution experiment, preincubation 10 × IC50, 100-fold dilution
Protocol: After preincubation probes were diluted 100-fold, measured at saturated substrate conditions and the remaining enzyme activity was compared to that of MAO preincubated without ciproxifan.
Reversibility of hMAO inhibition by ciproxifan was assessed by dilution experiments. […] The inhibitor volume represented one-tenth of the total preincubation volume. […] Enzymatic conversion rates were determined in the presence of kynuramine for hMAO A and benzylamine for hMAO B at saturating substrate concentrations (10 × KM) under potassium phosphate buffer conditions (50 mM, pH = 7.4).

[6] = molecular target: r5-HT1; design: method as in PMID 18683917; conditions: rat; cited from earlier work
[7] = molecular target: r5-HT3; design: method as in PMID 12606603; conditions: rat; cited from earlier work
[8] = molecular target: rodent H3R; assay: Affinity at rodent H3R (discussion); format: binding; conditions: rodent vs human H3R
[9] = molecular target: hα2C; design: method as in PMID 12606603; conditions: human; cited from earlier work
[10] = molecular target: gp M3; design: method as in PMID 9808693; conditions: guinea pig ileum; cited from earlier work
[11] = molecular target: hH3R; design: method as in PMID 11090094, PMID 12606603, PMID 14660004; conditions: human H3R; cited from earlier work
[12] = molecular target: gpβ1; design: method as in PMID 9808693; conditions: guinea pig atrium; cited from earlier work
[13] = design: method as in PMID 18305012; conditions: applied i.p. to rats; cited from earlier work
[14] = molecular target: r5-HT4; design: method as in PMID 9808693; conditions: rat esophagus; cited from earlier work
[15] = molecular target: mH3R; design: method as in PMID 15341517; conditions: mouse H3R; cited from earlier work
[16] = molecular target: hH1R; design: method as in PMID 12606603; conditions: human; cited from earlier work
[17] = molecular target: gp5-HT1B; design: method as in PMID 9808693; conditions: guinea pig iliac; cited from earlier work
[18] = molecular target: hα2A; design: method as in PMID 12606603; conditions: human; cited from earlier work
[19] = molecular target: mkH3R; design: method as in PMID 14660004; conditions: monkey H3R; cited from earlier work
[20] = molecular target: human recombinant membrane-bound MAO A (Homo sapiens, UniProt P21397); assay: Spectrophotometric IC50 determination, human MAO A; conditions: IC50 hMAO A, substrate KYN
human recombinant membrane-bound MAO A, sequence (P21397 whole entry): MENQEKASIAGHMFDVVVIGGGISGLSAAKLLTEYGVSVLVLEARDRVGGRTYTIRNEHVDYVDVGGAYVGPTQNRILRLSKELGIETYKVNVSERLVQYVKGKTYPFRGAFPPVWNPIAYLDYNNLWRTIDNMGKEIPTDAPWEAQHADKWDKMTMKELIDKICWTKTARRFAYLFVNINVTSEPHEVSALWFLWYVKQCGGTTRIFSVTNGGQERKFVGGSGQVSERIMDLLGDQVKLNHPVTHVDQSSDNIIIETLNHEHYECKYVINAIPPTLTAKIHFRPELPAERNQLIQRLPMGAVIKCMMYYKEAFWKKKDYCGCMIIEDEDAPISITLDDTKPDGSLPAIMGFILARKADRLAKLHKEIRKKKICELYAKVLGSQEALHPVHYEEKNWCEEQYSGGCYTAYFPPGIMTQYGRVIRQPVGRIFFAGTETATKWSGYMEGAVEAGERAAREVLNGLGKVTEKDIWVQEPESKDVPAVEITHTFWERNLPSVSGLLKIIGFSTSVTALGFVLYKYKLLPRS
Protocol: Enzyme studies were carried out using human recombinant membrane-bound MAO A and MAO B (Sigma-Aldrich, St. Louis, MO). […] For optimal enzyme activity all assays were carried out under potassium phosphate buffered conditions (50 mM, pH = 7.4). […] Data were analysed using GraphPad PRISM version 6. For IC50 determinations initial velocities for each experiment were normalized (expressed as percentage), plotted against inhibitor concentrations and fitted using the non-linear regression “log inhibitor vs. response (three parameters)”. IC50 values were determined in at least three independent experiments, each performed at least in duplicates.

[21] = molecular target: hH4R; design: method as in PMID 12606603; conditions: human; cited from earlier work
[22] = molecular target: rα1D; design: method as in PMID 9808693; conditions: rat aorta; cited from earlier work
[23] = molecular target: T2, human recombinant membrane-bound MAO B (Homo sapiens, UniProt P27338); assay: Spectrophotometric IC50 determination, human MAO B; format: biochemical; conditions: for IC50: spectrophotometric, read-out: IC50 hMAO B
T2 construct: purchased Sigma-Aldrich
T2 sequence (P27338 1-520): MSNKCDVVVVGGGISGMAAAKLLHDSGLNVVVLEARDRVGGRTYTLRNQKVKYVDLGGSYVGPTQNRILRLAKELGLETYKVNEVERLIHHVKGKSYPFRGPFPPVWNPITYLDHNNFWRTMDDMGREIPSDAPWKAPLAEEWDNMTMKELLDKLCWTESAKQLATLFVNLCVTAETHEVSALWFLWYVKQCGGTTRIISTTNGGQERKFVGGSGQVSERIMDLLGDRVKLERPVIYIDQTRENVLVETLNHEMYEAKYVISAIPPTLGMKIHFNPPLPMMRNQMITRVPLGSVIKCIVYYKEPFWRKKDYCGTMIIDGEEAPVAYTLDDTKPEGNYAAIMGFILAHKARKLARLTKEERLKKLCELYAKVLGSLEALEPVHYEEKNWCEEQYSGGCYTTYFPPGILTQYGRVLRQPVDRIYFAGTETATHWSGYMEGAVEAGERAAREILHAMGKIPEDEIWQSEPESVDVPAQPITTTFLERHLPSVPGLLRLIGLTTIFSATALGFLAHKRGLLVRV

[24] = molecular target: hH2R; design: method as in PMID 12606603; conditions: human; cited from earlier work
[25] = molecular target: T3, rat brain MAO A (Rattus norvegicus, UniProt P21396); assay: Radiometric IC50 determination, rat brain MAO A; format: biochemical; conditions: substrate 5-HT, rat brain homogenate, read-out: IC50 rMAO A
T3 construct: the crude homogenates prepared from pooled brain from three rats were used; from tissue; host or cells: Wistar rat brain, crude homogenate
T3 sequence (P21396 whole entry): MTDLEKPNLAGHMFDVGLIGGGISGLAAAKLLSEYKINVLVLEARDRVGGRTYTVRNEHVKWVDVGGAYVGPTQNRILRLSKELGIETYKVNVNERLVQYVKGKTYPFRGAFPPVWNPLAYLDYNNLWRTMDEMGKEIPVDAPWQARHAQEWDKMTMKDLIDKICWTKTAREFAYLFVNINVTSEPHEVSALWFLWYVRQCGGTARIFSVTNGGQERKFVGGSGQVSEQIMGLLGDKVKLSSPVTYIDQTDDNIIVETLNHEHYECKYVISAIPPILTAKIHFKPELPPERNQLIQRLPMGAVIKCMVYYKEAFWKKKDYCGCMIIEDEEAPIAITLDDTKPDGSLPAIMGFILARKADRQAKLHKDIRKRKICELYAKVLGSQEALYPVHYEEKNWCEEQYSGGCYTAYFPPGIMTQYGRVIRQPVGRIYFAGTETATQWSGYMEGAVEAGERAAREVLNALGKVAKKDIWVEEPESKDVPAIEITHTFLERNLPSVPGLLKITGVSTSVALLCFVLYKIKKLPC
Protocol: as §1, §2

[26] = test system: MAO; conditions: cited from earlier work

Compound: O=C(c1ccc(OCCCc2cnc[nH]2)cc1)C1CC1 [Ciproxifan, cyclopropyl 4-(3-(1H-imidazol-4-yl)propyloxy)phenyl methanone]
- Ki [1]: 0.0004 to 0.0062 µM
- Ki [2]: 15.8 µM
- Ki [3]: > 3.16 µM
- IC50, MAO B/IC50, MAO A ([4]; rat brain MAO): 0.4
- IC50 ([4]; substrate PEA, radiometric, rat brain homogenate, read-out: IC50 rMAO B): 15 µM and 15.4 µM
- Inhibition Type [5]: Reversible
- Ki [6]: 16.6 µM
- Ki [7]: 0.302 µM
- Ki at rodent H3R, fold lower than at the human H3R [8]: 30- to 100 fold
- Ki [9]: 0.063 µM
- Ki [10]: 3.16 µM
- Ki [11]: 0.046 to 0.18 µM
- Ki [12]: 12.6 µM
- brain concentrations [13]: ≤ 10 µM
- Ki [14]: > 2 µM
- Ki [15]: 0.0005 to 0.0008 µM
- Ki [16]: > 10 µM
- Ki [17]: > 10 µM
- Ki [18]: 0.043 µM
- Ki [19]: 0.041 µM
- IC50 [20]: 11 µM and 11.4 µM
- Ki [21]: 1.86 µM
- Ki [22]: 3.98 µM
- IC50, MAO B/IC50, MAO A ([23]; human MAO): 0.2
- preference for MAO B ([23]; human MAO B over MAO A): about 5 fold
- IC50 ([23]; substrate BZA): 4.3 ± 0.7 µM
- IC50 ([23]; substrate KYN): 2 µM and 2.1 µM
- Ki [24]: > 10 µM
- IC50 [25]: 38 µM and 37.5 µM

Compound: C#CCN(C)CCCOc1ccc(Cl)cc1Cl [Clorgyline]
- Inhibition Type [26]: Mixed/Irreversible[33]

Compound: C#CCN(C)[C@H](C)Cc1ccccc1 [L-Deprenyl]
- Inhibition Type [26]: Mixed/Irreversible[33]

Compound: O=C(NCCN1CCOCC1)c1ccc(Cl)cc1 [Moclobemide]
- Inhibition Type [26]: Reversible[32]

Compound: C[C@H](NCc1ccc(OCc2cccc(F)c2)cc1)C(N)=O [Safinamide]
- Inhibition Type [26]: Reversible[20]
